Data as given in PubChem BioAssay (NCI).
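Growth conditions: 96-well plates. Treatment: test compound, 48 hours, 5 concentrations. Analysis: linear interpolation between bracketing concentrations; unreached endpoints set to highest concentration. GI50 is the concentration that inhibits growth by half. TGI marks complete inhibition of growth.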

How the values were obtained:
Assay in all cases: DTP human tumour cell line panel, 48 h
[1] = tested on: COLO 205 colon
[2] = tested on: HOP-92 NSCLC
[3] = tested on: HS 578T breast
[4] = tested on: K-562 leukemia
[5] = tested on: LOX IMVI melanoma
[6] = tested on: MCF7 breast
[7] = tested on: MDA-MB-231 breast
[8] = tested on: OVCAR-5 ovarian
[9] = tested on: SR leukemia
[10] = tested on: TK-10 renal

Compound: OCc1ccc(N2CCc3ccc(F)cc3C2)cc1Cl
- GI50 [1]: 0.121 µM
- TGI [1]: 0.36 µM
- GI50 [2]: 146 nM
- TGI [2]: 0.889 µM
- GI50 [3]: 15800 nM
- TGI [3]: 48.4 µM
- GI50 [4]: 0.159 µM
- TGI [4]: 19.6 µM
- GI50 [5]: 3.73 µM
- TGI [5]: 12.3 µM
- GI50 [6]: 137 nM
- TGI [6]: 11 µM
- GI50 [7]: 11.7 µM
- TGI [7]: 24.9 µM
- GI50 [8]: 0.0301 µM
- TGI [8]: 0.183 µM
- GI50 [9]: 2.9 µM
- TGI [9]: 17.3 µM
- GI50 [10]: 0.0178 µM
- TGI [10]: 0.0693 µM

Compound: C#CCCCCCC(=O)N[C@H]1C=C[C@@H]2/C=C(C)/C=C/[C@@H](C)[C@H]([C@H](C)[C@H](O)[C@@H](C)NC(C)=O)OC(=O)/C=C/C=C(C)\C=C\[C@]2(C)C1
- GI50 [1]: 0.00414 µM
- TGI [1]: 4.06 µM
- GI50 [2]: < 4 nM
- TGI [2]: 0.0159 µM
- GI50 [3]: 4.22 nM
- TGI [3]: > 40 µM
- GI50 [4]: < 0.004 µM
- TGI [4]: > 40 µM
- GI50 [5]: < 0.004 µM
- TGI [5]: < 0.004 µM
- GI50 [6]: < 4 nM
- TGI [6]: > 40 µM
- GI50 [7]: < 0.004 µM
- TGI [7]: < 0.004 µM
- GI50 [8]: 6.53 µM
- TGI [8]: > 40 µM
- GI50 [9]: < 0.004 µM
- TGI [9]: 9.53 µM
- GI50 [10]: 0.0158 µM
- TGI [10]: > 40 µM

Compound: O=C(O)CSc1cc(NS(=O)(=O)c2ccc(Br)cc2)c2ccccc2c1O
- GI50 [1]: 13.1 µM
- TGI [1]: 28.4 µM
- GI50 [2]: 13500 nM
- TGI [2]: 31.6 µM
- GI50 [3]: 7650 nM
- TGI [3]: 80.1 µM
- GI50 [4]: 19.7 µM
- TGI [4]: > 59.6 µM
- GI50 [5]: 3.14 µM
- TGI [5]: 12.1 µM
- GI50 [6]: 5710 nM
- TGI [6]: 19.8 µM
- GI50 [7]: 2.72 µM
- TGI [7]: 8.08 µM
- GI50 [8]: 21.6 µM
- TGI [8]: 47.1 µM
- GI50 [9]: 17.8 µM
- TGI [9]: > 68.1 µM
- GI50 [10]: 20.3 µM
- TGI [10]: 34.7 µM

Compound: COc1ccccc1CNCCCN1C(=O)c2ccc3c4c(ccc(c24)C1=O)C(=O)N(CCCNCc1ccccc1OC)C3=O
- GI50 [1]: 0.121 µM
- TGI [1]: 0.256 µM
- GI50 [2]: 243 nM
- TGI [2]: 0.847 µM
- GI50 [3]: 590 nM
- TGI [3]: 2.13 µM
- GI50 [4]: 0.265 µM
- TGI [4]: 0.83 µM
- GI50 [5]: 0.135 µM
- TGI [5]: 0.365 µM
- GI50 [6]: 108 nM
- TGI [6]: 0.329 µM
- GI50 [7]: 0.227 µM
- TGI [7]: 0.867 µM
- GI50 [8]: 0.225 µM
- TGI [8]: 0.597 µM
- GI50 [9]: 0.264 µM
- TGI [9]: 0.928 µM
- GI50 [10]: 0.17 µM
- TGI [10]: 0.466 µM

Compound: C/C(=C\c1csc(C)n1)[C@@H]1C[C@@H]2O[C@]2(C)CCC[C@H](C)[C@H](O)[C@@H](C)C(=O)C(C)(C)[C@@H](O)CC(=O)N1
- GI50 [1]: 0.000182 µM
- TGI [1]: 0.000438 µM
- GI50 [2]: < 0.01 nM
- TGI [2]: < 1e-05 µM
- GI50 [3]: 0.0861 nM
- TGI [3]: 0.000226 µM
- GI50 [4]: 0.000106 µM
- TGI [4]: 0.00033 µM
- GI50 [5]: 0.00012 µM
- TGI [5]: 0.000226 µM
- GI50 [6]: 0.0795 nM
- TGI [6]: 0.00037 µM
- GI50 [7]: 0.000312 µM
- TGI [7]: 0.000479 µM
- GI50 [8]: 0.000262 µM
- TGI [8]: 0.000447 µM
- GI50 [9]: 0.00102 µM
- TGI [9]: 0.00332 µM
- GI50 [10]: 0.00534 µM
- TGI [10]: 0.0411 µM

Compound: CNCc1cccc2c1OCCOCCOCCNS(=O)(=O)c1ccc(cc1)-c1cnc(N)c(n1)C(=O)N2
- GI50 [1]: 1.02 µM
- TGI [1]: 2.44 µM
- GI50 [2]: 3050 nM
- TGI [2]: 14.7 µM
- GI50 [3]: 477 nM
- TGI [3]: 3.05 µM
- GI50 [4]: 1.26 µM
- TGI [4]: 5.46 µM
- GI50 [5]: 0.889 µM
- TGI [5]: 2.27 µM
- GI50 [6]: 439 nM
- TGI [6]: 5.11 µM
- GI50 [7]: 1.38 µM
- TGI [7]: 3.61 µM
- GI50 [8]: 2.72 µM
- TGI [8]: 6.37 µM
- GI50 [9]: 0.346 µM
- TGI [9]: 13.3 µM
- GI50 [10]: 1.98 µM
- TGI [10]: 8.49 µM

Compound: CC(=O)O[C@H]([C@H](OC(C)=O)[C@H](C)OC(C)=O)[C@@H](/C=C/[C@H]1CC=CC(=O)O1)OC(C)=O
- GI50 [1]: 37.1 µM
- TGI [1]: > 100 µM
- GI50 [2]: 23500 nM
- TGI [2]: 62.4 µM
- GI50 [3]: 65500 nM
- TGI [3]: > 100 µM
- GI50 [4]: > 100 µM
- TGI [4]: > 100 µM
- GI50 [5]: 55.1 µM
- TGI [5]: > 100 µM
- GI50 [6]: 39000 nM
- TGI [6]: > 100 µM
- GI50 [7]: > 100 µM
- TGI [7]: > 100 µM
- GI50 [8]: > 100 µM
- TGI [8]: > 100 µM
- GI50 [9]: 73.7 µM
- TGI [9]: > 100 µM
- GI50 [10]: > 100 µM
- TGI [10]: > 100 µM

Compound: N#CC1=C(N)Oc2c(ccc3ccccc23)C1c1cc2ccccc2n2nnnc12 (stereo not drawn)
- GI50 [1]: 2.69 µM
- TGI [1]: 7.32 µM
- GI50 [2]: 490 nM
- TGI [2]: 7.47 µM
- GI50 [3]: 1510 nM
- TGI [3]: 49.3 µM
- GI50 [4]: 0.365 µM
- TGI [4]: > 100 µM
- GI50 [5]: 0.966 µM
- TGI [5]: > 100 µM
- GI50 [6]: 471 nM
- TGI [6]: > 100 µM
- GI50 [7]: 0.976 µM
- TGI [7]: > 100 µM
- GI50 [8]: 2.76 µM
- TGI [8]: > 100 µM
- GI50 [9]: 0.232 µM
- TGI [9]: > 100 µM
- GI50 [10]: 4.8 µM
- TGI [10]: > 100 µM

Compound: NS(=O)(=O)c1cc2c(cc1Cl)NCNS2(=O)=O
- TGI [1]: > 100 µM
- TGI [2]: > 100 µM
- TGI [3]: > 100 µM
- TGI [4]: > 100 µM
- TGI [5]: > 100 µM
- TGI [6]: > 100 µM
- TGI [7]: > 100 µM
- TGI [8]: > 100 µM
- TGI [9]: > 100 µM
- TGI [10]: > 100 µM

Compound: O=C1C[C@@H]2OCC=C3C[N+]4([O-])CC[C@]56c7ccccc7N1[C@H]5[C@H]2[C@H]3C[C@@H]64 (stereo partly drawn)
- GI50 [1]: > 100 µM
- TGI [1]: > 100 µM
- GI50 [2]: > 100000 nM
- TGI [2]: > 100 µM
- GI50 [3]: > 100000 nM
- TGI [3]: > 100 µM
- GI50 [4]: > 100 µM
- TGI [4]: > 100 µM
- GI50 [5]: > 100 µM
- TGI [5]: > 100 µM
- GI50 [6]: > 100000 nM
- TGI [6]: > 100 µM
- GI50 [7]: > 100 µM
- TGI [7]: > 100 µM
- GI50 [8]: > 100 µM
- TGI [8]: > 100 µM
- GI50 [9]: > 100 µM
- TGI [9]: > 100 µM
- GI50 [10]: > 100 µM
- TGI [10]: > 100 µM

Compound: O=C1NC(c2ccccc2Cl)Nc2ccccc21 (stereo not drawn)
- TGI [1]: > 54.1 µM
- TGI [2]: > 100 µM
- TGI [3]: 54.7 µM
- TGI [4]: > 30.4 µM
- TGI [5]: > 100 µM
- TGI [6]: > 100 µM
- TGI [7]: > 100 µM
- TGI [8]: > 100 µM
- TGI [9]: > 100 µM
- TGI [10]: > 100 µM

Compound: COc1ccc([C@@H]2[C@@H](Oc3ccccc3)C(=O)N2c2cc(OC)c(OC)c(OC)c2)cc1F
- GI50 [1]: 0.235 µM
- TGI [1]: 0.972 µM
- GI50 [2]: 722 nM
- TGI [2]: > 100 µM
- GI50 [3]: 86.4 nM
- TGI [3]: 77.9 µM
- GI50 [4]: 0.0417 µM
- TGI [4]: > 100 µM
- GI50 [5]: 0.091 µM
- TGI [5]: > 100 µM
- GI50 [6]: 40.9 nM
- TGI [6]: > 100 µM
- GI50 [7]: 0.298 µM
- TGI [7]: > 100 µM
- GI50 [8]: 0.421 µM
- TGI [8]: > 100 µM
- GI50 [9]: 0.0778 µM
- TGI [9]: > 100 µM
- GI50 [10]: 6.52 µM
- TGI [10]: > 100 µM

Compound: O=C(NO)c1ccc(CNc2cccc3nc(C4CC4)n(-c4ccccc4)c(=O)c23)cc1
- GI50 [1]: 2.22 µM
- TGI [1]: 5.59 µM
- GI50 [2]: 1990 nM
- TGI [2]: 6.82 µM
- GI50 [3]: 2500 nM
- TGI [3]: 20.6 µM
- GI50 [4]: 2.89 µM
- TGI [4]: > 100 µM
- GI50 [6]: 3350 nM
- TGI [6]: 18 µM
- GI50 [7]: 2.31 µM
- TGI [7]: 7.33 µM
- GI50 [8]: 2.06 µM
- TGI [8]: 6.1 µM
- GI50 [9]: 0.877 µM
- TGI [9]: > 100 µM
- GI50 [10]: 1.73 µM
- TGI [10]: 7 µM
